# Experimental data reported in article PMC8233136, “Monomeric bile acids modulate the ATPase activity of detergent-solubilized ABCB4/MDR3” (Journal of Lipid Research, 2021).
# Values joined by “and” are separate entries in the source; they are usually repeats but may differ in a detail not shown here. Equal values may be shown once.
# Key:
# [1] = Critical micelle concentration by Hoechst 33342 fluorescence in ATPase reaction buffer; assay type: physicochemical; details: 50 mM Tris-HCl pH 7.5, 100 mM NaCl, 37°C; no FC-16, MgCl2 or ATP
# Method: CMC values were determined as described ([61]). […] 96-well plates suitable for fluorescence spectroscopy (Greiner Bio-One, FIA plate, black, flat bottom, medium binding) were used. […] CMCs of the bile acids were determined in ATPase reaction buffer (50 mM Tris-HCl, pH 7.5 (at 37°C), 100 mM NaCl) containing no FC-16, MgCl2, or ATP at 37°C using a Tecan M200 plate reader (Atlantic lab equipment). Bile acids were dissolved either in ddH2O or in 100% DMSO (as stated in “Lipid, cholesterol and bile acid preparation”) at a concentration of 100 mM. […] In case of hydrophobic bile acids, which were dissolved in DMSO, DMSO concentration was adapted to 1% in all wells. […] After background correction, fluorescence data were analyzed using Prism (version 8, GraphPad) with Equation 4:(4) F=Fmax∗(c[BA]−cmc)/(K0.5−cmc)+(c[BA]−cmc)
# The measured fluorescence at each bile acid concentration (c[BA]) is represented by F, while Fmax is the maximal fluorescence, K0.5 is the midpoint of the function, and cmc is the critical micelle concentration of the bile acid.
# human ABCB4 [2] = molecular target: T1, human ABCB4 (Homo sapiens, UniProt P21439); test: ATP hydrolysis (malachite green) of detergent-solubilized, purified ABCB4: modulation of basal ATPase activity; assay type: biochemical; details: for EC50: stimulation of basal ATPase activity, allosteric sigmoidal fit, read-out: EC50; for EC50 / Emax / Concentration at which maximal stimulation (plateau) of ATPase activity is reached: 0-1,000 μM; for Emax: vmax of allosteric sigmoidal fit (Equation 1), basal ABCB4 ATPase activity set to 0%, read-out: Max. Stimulation (%)
# T1 construct: made in house; host or cells: Pichia pastoris (chromosomally integrated)
# Method: (§1) The sodium salts of conjugated and unconjugated bile acids were dissolved in double-distilled water (ddH2O) or 100% DMSO at a concentration of 100 mM. While glyco-/tauro-/cholic acid (G/T/CA), glyco-/tauro-/chenodeoxycholic acid (G/T/CDCA) were dissolved in ddH2O water, glyco-/tauro-/deoxycholic acid (G/T/DCA), glyco/-tauro-/ursodeoxycholic acid (G/T/UDCA) as wells as Nor-UDCA and taurolithocholic acid (TLCA) were dissolved in DMSO. […] Modulation of the ATP hydrolysis by bile acid was determined in a concentration-dependent manner from 0 to 1,000 μM bile acids.
# (§2) Analysis of the ATP activity of ABCB4 was performed by determining the amount of released, free inorganic orthophosphate by the malachite green assay ([53], [54], [60]) with minor modifications. The assay was performed in a total volume of 100 μl consisting of reaction buffer (50 mM Tris HCl, pH 7.4 at 37°C, 100 mM NaCl) supplemented with the 2.5 × cmc of FC-16 and 10 mM MgCl2. For determining the effect of DOPC, different bile acids or combinations thereof, 1–5 μL of the corresponding stock solutions (see lipid and bile acid preparation) were added. Five micrograms of ABCB4 or the BODIPY®-labeled sample was used in every reaction sample. Reaction was started by addition of ATP (5 mM f.c.) and performed for 40 min at 37°C. After 0 and 40 min, the reaction was stopped by transferring 25 μl of the reaction mixture into a 96-well plate containing 175 μl of 20 mM ice-cold sulfuric acid. Additionally, a phosphate standard with concentrations raging from 0 to 500 μM was used. Subsequently, inorganic phosphate was stained by adding 50 μl of dye (0.096% (w/v) malachite green, 1.48% (w/v) ammonium molybdate, 0.173% (w/v) Tween-20, and […] sulfuric acid). After incubation for 15 min, the absorption at 595 nm was measured (iMark™ Microplate Reader, BioRad), and the concentrations of phosphate release were calculated based on the slope of the line calculated based on the phosphate standards.
# (§3) Basal ATPase activity of ABCB4 was set to 0% and the effect of supplements was calculated as % stimulation or % inhibition of the basal activity, respectively. For determination of kinetic parameters, bile acid concentration was varied and analyzed according to an allosteric sigmoidal fit (Equation 1):(1) v=vmax∗[S]^h/EC50h+[S]^h
# Here, v describes the stimulation (%), vmax is the maximal stimulation (%), EC50 represents the half maximal effective concentration, S is the substrate concentration, and h is the Hill coefficient
# In case of inhibition, the reduction (%) was plotted against the bile acid concentration and data were analyzed using Equation 2:(2) y=ymin+(ymax−ymin)/1+10^((logIC50−x)∗slope)
# Here, ymax is the smallest, and ymin is the highest amount of inhibition, respectively, and x represents the concentration of the inhibitor. The IC50 value is defined as the concentration necessary to obtain 50% inhibition.
# In case of both substrate stimulations, followed by substrate inhibition after maximal stimulation was reached, the modulation (%) was plotted against the substrate concertation and data was analyzed using by two fits: First part (stimulation) was as usually fitted using Equation 1. The second part (substrate inhibition) was analyzed by Equation 3 starting at the last point of the plateau:(3) y=ymin+[…]/(1+x/IC50)
# Here, ymax is the highest value of the plateau after stimulation is reached, while ymin is the smallest value of y after maximal stimulation was reached.
# human ABCB4 [3] = molecular target: T1, human ABCB4; test: ATP hydrolysis (malachite green) of purified ABCB4 in the presence of 300 μM DOPC (with or without cholesterol); assay type: biochemical; details: for activity at 1000 µM: 1,000 μM bile acid/detergent/BAM + 300 μM DOPC, DOPC alone set to 100%, read-out: Relative ATPase activity in the presence of 300 μM DOPC
# Method: A sample of purified ABCB4 was incubated with 10-fold molar excess of BODIPY® FL maleimide (BODIPY® FL N-(2-aminoethyl)maleimide, Molecular Probes) at 22°C for 20 min. The reaction was quenched after 20 min by addition of a 20-fold molar excess of dithiothreitol (DTT) at 22°C for 10 min. Qualitative labeling efficiency was analyzed by visualizing a sample after SDS-PAGE by UV excitation.
# DOPC was dissolved in chloroform, the solvent was evaporated, and the dried lipid sample was redissolved in ATP hydrolysis reaction buffer (50 mM Tris HCl, pH 7.4 at 37°C, 100 mM NaCl) at a concentration of 25.4 mM following the protocol of Geertsma et al. ([59]). Prior to the addition of the DOPC sample to the ATP hydrolysis assay, it was diluted to 5 mM, sonicated until a clear solution was obtained, and subsequently used at a final concentration of 300 μM. Since chloroform is not suitable for the later ATPase assay and cholesterol at higher concentration is insoluble in water and nearly all solvents, a molar mixture of cholesterol and DOPC was used. This mixture was obtained by adding the required molar ratio of cholesterol to always the same amount of dried DOPC. Afterward, the mixture was treated identical to DOPC only as described above resulting in a final concentration (f.c.) of 300 μM DOPC with 0–1,000 μM cholesterol in the ATPase assay.
# as §1, §2, §3
# [4] = Solubility / precipitation of bile acids under assay conditions; assay type: physicochemical; details: assay setup, DMSO stock
# Method: as §1, with “DMSO. Glyco- and unconjugated lithocholic acid could not be dissolved in DMSO in the appropriate concentrations and therefore excluded.” for “DMSO.”
# [5] = Hill coefficient of allosteric sigmoidal fit of ATPase stimulation
# T1 sequence (P21439 1-1279 isoform P21439-2): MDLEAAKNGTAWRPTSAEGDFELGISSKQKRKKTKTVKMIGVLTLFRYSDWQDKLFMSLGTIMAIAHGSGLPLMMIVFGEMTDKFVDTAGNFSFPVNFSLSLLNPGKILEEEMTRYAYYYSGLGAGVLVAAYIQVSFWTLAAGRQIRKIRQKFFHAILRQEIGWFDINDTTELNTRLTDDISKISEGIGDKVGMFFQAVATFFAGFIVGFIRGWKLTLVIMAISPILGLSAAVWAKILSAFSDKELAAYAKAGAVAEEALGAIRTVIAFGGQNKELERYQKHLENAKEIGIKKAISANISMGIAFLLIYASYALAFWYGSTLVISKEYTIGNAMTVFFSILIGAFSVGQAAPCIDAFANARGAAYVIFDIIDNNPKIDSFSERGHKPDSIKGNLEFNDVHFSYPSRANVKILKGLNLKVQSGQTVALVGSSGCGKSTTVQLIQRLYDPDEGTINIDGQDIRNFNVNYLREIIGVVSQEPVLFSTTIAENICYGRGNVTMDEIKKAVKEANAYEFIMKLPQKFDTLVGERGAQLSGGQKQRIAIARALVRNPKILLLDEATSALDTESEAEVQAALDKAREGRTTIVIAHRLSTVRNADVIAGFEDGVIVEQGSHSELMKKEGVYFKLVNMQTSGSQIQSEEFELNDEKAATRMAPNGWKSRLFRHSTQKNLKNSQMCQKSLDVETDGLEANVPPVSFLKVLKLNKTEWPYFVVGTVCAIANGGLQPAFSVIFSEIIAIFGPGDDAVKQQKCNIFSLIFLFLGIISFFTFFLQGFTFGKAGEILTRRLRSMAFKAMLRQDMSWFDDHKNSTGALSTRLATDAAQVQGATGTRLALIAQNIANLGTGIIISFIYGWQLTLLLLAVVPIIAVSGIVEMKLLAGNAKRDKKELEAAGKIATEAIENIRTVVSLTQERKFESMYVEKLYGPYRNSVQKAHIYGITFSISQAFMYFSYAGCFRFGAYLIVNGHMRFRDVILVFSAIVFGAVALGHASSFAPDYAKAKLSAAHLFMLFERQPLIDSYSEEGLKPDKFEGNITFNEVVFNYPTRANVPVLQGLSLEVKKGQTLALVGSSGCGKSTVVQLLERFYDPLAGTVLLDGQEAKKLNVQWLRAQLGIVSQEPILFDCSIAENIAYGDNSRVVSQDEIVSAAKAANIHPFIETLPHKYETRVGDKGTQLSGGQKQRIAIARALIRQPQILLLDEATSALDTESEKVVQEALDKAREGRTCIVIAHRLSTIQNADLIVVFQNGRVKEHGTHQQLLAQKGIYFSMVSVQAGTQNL
Critical micelle concentration (cmc) [1],Slope (human ABCB4 [2]; [5]),EC50 (human ABCB4 [2]),Emax (human ABCB4 [2]),activity at 1000 µM (human ABCB4 [3]),Concentration at which maximal stimulation (plateau) of ATPase activity is reached (human ABCB4 [2]; basal ATPase activity),Reduction of ATPase activity at 100 μM (human ABCB4 [2]; 100 μM),"inhibition at 1000 µM (human ABCB4 [2]; 1,000 μM, 5% DMSO, mixture experiment Fig. 6, read-out: Inhibition of basal ATPase activity by pure bile acid at 1,000 μM)",Concentration at which maximal inhibition is reached (human ABCB4 [2]; basal ATPase activity),"IC50 (human ABCB4 [2]; inhibition of basal ATPase activity, Equation 2)",Slope (human ABCB4 [2]; slope of inhibition fit (Equation 2)),"Decrease of DOPC-stimulated ATPase activity (human ABCB4 [3]; 1,000 μM + 300 μM DOPC, relative to DOPC alone)",Structure (SMILES),Concentration above which the bile acid precipitated [4]
1.7 mM and 1.7 ± 0.1 mM,2.7 ± 0.3,102 ± 4.2 µM,217 ± 4%,84.8 ± 9.3%,–,–,–,–,–,–,–,C[C@H](CCC(=O)NCCS(=O)(=O)O)[C@H]1CC[C@H]2[C@@H]3CC[C@@H]4C[C@H](O)CC[C@]4(C)[C@H]3C[C@H](O)[C@]12C [TDCA],–
1.4 mM and 1.4 ± 0.1 mM,2.6 ± 0.6,75 ± 7.3 µM,214 ± 13.3%,100 ± 7.5%,300 µM,–,–,–,–,–,–,"C[C@H](CCC(=O)O)[C@H]1CC[C@H]2[C@@H]3CC[C@@H]4C[C@H](O)CC[C@]4(C)[C@H]3C[C@H](O)[C@]12C [DCA, deoxycholic acid]",–
1.5 mM and 1.5 ± 0.2 mM,4.5 ± 1.4,267 µM,154 ± 11%,88.2 ± 8.3%,–,–,–,–,–,–,–,C[C@H](CCC(=O)NCCS(=O)(=O)O)[C@H]1CC[C@H]2[C@@H]3[C@@H](O)C[C@@H]4C[C@H](O)CC[C@]4(C)[C@H]3CC[C@]12C [TUDCA],–
0.14 mM and 0.14 ± 0.03 mM,–,–,–,34.8 ± 21.9%,–,36%,~50%,400 µM,113 µM,−2.7 ± 2.1,approximately 65%,"C[C@H](CCC(=O)NCCS(=O)(=O)O)[C@H]1CC[C@H]2[C@@H]3CC[C@@H]4C[C@H](O)CC[C@]4(C)[C@H]3CC[C@]12C [TLCA, taurolithocholic acid]",–
4.1 mM and 4.1 ± 0.1 mM,2.9 ± 0.4,177 ± 9.9 µM,733 ± 24%,171 ± 6.9%,approximately 400 μM,–,–,–,–,–,–,C[C@H](CCC(=O)NCC(=O)O)[C@H]1CC[C@H]2[C@@H]3[C@H](O)C[C@@H]4C[C@H](O)CC[C@]4(C)[C@H]3C[C@H](O)[C@]12C [GCA],–
1.7 mM and 1.7 ± 0.1 mM,2.6 ± 0.4,169 ± 11 µM,423 ± 15%,112 ± 8.2%,approximately 500 μM,–,–,–,–,–,–,"C[C@H](CCC(=O)NCCS(=O)(=O)O)[C@H]1CC[C@H]2[C@@H]3[C@H](O)C[C@@H]4C[C@H](O)CC[C@]4(C)[C@H]3CC[C@]12C [TCDCA, taurochenodeoxycholic acid]",–

Structure (SMILES),Critical micelle concentration (cmc) [1],Slope (human ABCB4 [2]; [5]),EC50 (human ABCB4 [2]),Emax (human ABCB4 [2]),activity at 1000 µM (human ABCB4 [3]),Concentration at which maximal stimulation (plateau) of ATPase activity is reached (human ABCB4 [2]; basal ATPase activity),Reduction of ATPase activity at 100 μM (human ABCB4 [2]; 100 μM),"inhibition at 1000 µM (human ABCB4 [2]; 1,000 μM, 5% DMSO, mixture experiment Fig. 6, read-out: Inhibition of basal ATPase activity by pure bile acid at 1,000 μM)",Concentration at which maximal inhibition is reached (human ABCB4 [2]; basal ATPase activity),"IC50 (human ABCB4 [2]; inhibition of basal ATPase activity, Equation 2)",Slope (human ABCB4 [2]; slope of inhibition fit (Equation 2)),"Decrease of DOPC-stimulated ATPase activity (human ABCB4 [3]; 1,000 μM + 300 μM DOPC, relative to DOPC alone)",Concentration above which the bile acid precipitated [4]
C[C@H](CCC(=O)NCC(=O)O)[C@H]1CC[C@H]2[C@@H]3[C@H](O)C[C@@H]4C[C@H](O)CC[C@]4(C)[C@H]3CC[C@]12C [GCDCA],2.6 mM and 2.6 ± 0.1 mM,3.9 ± 1.5,77.8 ± 7.5 µM,223 ± 10%,127 ± 2.8%,approximately 150 μM,–,–,–,–,–,–,–
"C[C@H](CCC(=O)O)[C@H]1CC[C@H]2[C@@H]3[C@H](O)C[C@@H]4C[C@H](O)CC[C@]4(C)[C@H]3C[C@H](O)[C@]12C [CA, cholic acid]",2.3 mM and 2.3 ± 0.2 mM,2.8 ± 0.3,390 ± 22.7 µM,310 ± 16.4%,117 ± 8.9%,–,–,–,–,–,–,–,–
C[C@H](CCC(=O)NCC(=O)O)[C@H]1CC[C@H]2[C@@H]3CC[C@@H]4C[C@H](O)CC[C@]4(C)[C@H]3CC[C@]12C [Glycolithocholic acid],Precipitate ^a,–,–,–,–,–,–,–,–,–,–,–,higher than 100 μM
